In publication PMC3616001, “A Novel ^99mTc-Labeled Molecular Probe for Tumor Angiogenesis Imaging in Hepatoma Xenografts Model: A Pilot Study” (PLoS ONE, 2013):
Bridges are numbered along the chain shown (N, C = ends). Where no end group is shown, it is not given here. [ ]: non-standard residue; d: D form.

Experiments:
HepG2 xenografts = assay: Planar gamma imaging of tumor xenografts; assay type: in vivo, BALB/c nu/nu mice
Procedure: 12 BALB/c nu/nu mice with HepG2 xenografts were divided into 4 groups of 3 mice each (experimental, blocking, control and micro-PET group). The tumors were about 1 cm diameter for planar gamma or micro-PET imaging.
In experimental group, 7.4 MBq ^99mTc-RRL (100 µl, diluted with phosphate buffer, pH 7.4), which were purified and separated by Sephadex G25 gel-filtration column, were then injected into each mouse via lateral tail vein. In blocking group, 500 µg unlabeled RRL was injected 30 minutes before injection of ^99mTc-RRL. In control group, each mouse was only administered with 7.4 MBq Na^99mTcO4. All injections were successful with no leakage.
A whole-body planar imaging was performed at 1, 2, 4 and 6 h after injection in the Department of Nuclear Medicine, Peking University First Hospital, using SPECT (SPR SPECT; GE Healthcare, Inc.) equipped with a low-energy, high-resolution, parallel-hole collimator. Planar images were acquired 200,000 counts with a zoom factor of 2.0, and were digitally stored in a 256×256 matrix size.

[1] = assay type: in vitro ADME
Procedure: For the quality control of labeling, a double-phase paper chromatography on Xinhua no. 1 filter paper was performed to measure labeling efficiency and radiochemical purity, with acetone and ethanol: ammonia: water (2∶1∶5) as mobile phase. A sample of 100 µL ^99mTc-RRL at room temperature was used to observe the in vitro stability. And the in vitro stability was also determined by incubating 100 µL ^99mTc-RRL with 900 µL of normal saline at room temperature and 900 µL of freshly collected serum at 37°C, respectively. The three aliquots were then analyzed at 0, 1, 2, 4 and 6 h by paper chromatography.

[2] = test system: mice bearing HepG2 xenografts; design: species or system BALB/c nu/nu mice; conditions: mouse, in vivo
Description: BALB/c nu/nu mice (female, 18 ± 2 g, 3- to 4-wk-old; Department of Laboratory Animal Science, Peking University First Hospital) were used in this study. The mice were inoculated with 1×10^7 HepG2 cells in the right upper limbs, and the tumors were allowed to grow to about a 1 cm diameter for largest diameter which could be measured. The mice were maintained using a standard diet, bedding and environment, with free access to food and drinking water.
40 BALB/c nu/nu mice with HepG2 xenografts were randomly divided into 8 groups (6 experimental groups, 1 blocking group and 1 control group) of 5 mice each. The experimental groups were treated with ^99mTc-RRL directly, and the blocking group was treated with excessive unlabeled RRL (500 µg, dissolved in 50 µL, 0.5 M, pH = 7.4 phosphate buffer) from lateral tail vein 30 minutes before injection of the radiolabeled derivative. The control group was administered with Na^99mTcO4 only.
The radiolabeled compounds were purified and isolated from the Sephadex G25 gel-filtration column, 1,850 kBq of ^99mTc-RRL was injected into each mouse via the lateral tail vein. All injections were successful with no leakage. The animals of 6 experimental groups were sacrificed by cervical dislocation at 15 min, 30 min, 1, 2, 4 and 6 h after injection, respectively. At 6 h, the blocking and control group were also studied.
The mice were dissected and tissues of interest (blood, heart, liver, spleen, lung, kidney, stomach, small intestine, bladder, bone, skeletal muscle and tumor) were weighed, and their radioactivity was measured using a γ-well counter, which was equipped with a NaI(Tl) crystal detector and coupled to a high gain PMT for maximum efficiency of 80%, along with a standard solution of the injection. Radioactivity results were recorded as the percentage injected activity per gram (%ID/g) of tissue corrected for background and decay.

[3] = In vitro stability at room temperature, neat and in normal saline (radiochemical purity by paper chromatography); assay type: physicochemical; conditions: analysed at 0, 1, 2, 4 and 6 h by paper chromatography, average of 3 sampling points
Procedure: For the quality control of labeling, a double-phase paper chromatography on Xinhua no. 1 filter paper was performed to measure labeling efficiency and radiochemical purity, with acetone and ethanol: ammonia: water (2∶1∶5) as mobile phase.
A sample of 100 µL ^99mTc-RRL at room temperature was used to observe the in vitro stability. And the in vitro stability was also determined by incubating 100 µL ^99mTc-RRL with 900 µL of normal saline at room temperature and 900 µL of freshly collected serum at 37°C, respectively. The three aliquots were then analyzed at 0, 1, 2, 4 and 6 h by paper chromatography.

Radiochemical purity over 6 hours in fresh 37°C serum [1]: more than 93%
Blood clearance: tracer cleared from blood [2]: more than 71.3%
Ratio of tumor-to-blood [2]: 1.95
Ratio of tumor-to-liver [2]: 1.98
Ratio of tumor-to-muscle [2]: exceeded 6.5
Tracer cleared from tumor [2]: less than 4.39%
Radiochemical purity over 6 hours at room temperature (RT) ([3]; 100 µL sample at room temperature): more than 93%
Radiochemical purity over 6 hours in normal saline (NS) at RT ([3]; 100 µL with 900 µL normal saline at room temperature): more than 93%
Substance: G[dA]GGK[dS][dS]CGGRRLGGC-NH2 (disulfide 8-16 (inferred)) [^99mTc-RRL, cyclic (disulfide) RRL peptide radiolabeled with 99mTc by a one-step method]
Tumor visualisation in planar gamma imaging, blocking group (HepG2 xenografts; 500 µg unlabeled RRL injected 30 minutes before 7.4 MBq tracer, any time after injection): not shown clearly
Tumor visualisation in planar gamma imaging (HepG2 xenografts; experimental group, 7.4 MBq i.v., at 2–6 h after administration): imaged clearly
